Measurements taken from patent US20170138946A1, “BIOMARKERS FOR RESPONSE TO EZH2 INHIBITORS” (Memorial Sloan-Kettering Cancer Center, priority 2014, published 2017).

Tests used:
[1] = test system: BAP1-mutant cells; test: Matrigel invasion assay with GSK126; format: cell-based, human; settings: GSK126 0-2 μM for 7 days
Procedure: Mesothelioma cells (MSTO-211H, H2373, H226 and H2452) were seeded in T75 flasks (100,000 cells). 12 hours later the plated cells were treated with GSK126 (0-2 μM) (Chemitek) and then left to proliferate for 7 days. 250,000 treated cells were then placed on the top of a Matrigel invasion chamber (BD Biosciences, cat no. 354480) in serum free media while the lower chamber contained media with serum. 22 hours later the cells on the bottom of the membrane were stained with crystal violet and quantitated with ImageJ.

[2] = test system: E-Cadherin expression in H226; test: E-Cadherin expression after GSK126 treatment; format: cell-based, human; settings: cell line H226
Description: (§1) FIG. 20A-D. BAP1 mutant cell lines are most sensitive to EZH2 inhibition. (a) Meso10 cell line overexpressing EZH2 increasingly proliferated after injection into the flank of NOD-SCID mice. (b) EZH2 was overexpressed in MSTO-211H and Meso10 cell lines. […] (c) BAP1-mutant cells became less invasive when treated with the EZH2 inhibitor GSK126. (d) E-Cadherin expression increased in the cell line H226 following treatment with GSK126.

[3] = test system: BAP1-mutant mesothelioma cells (H2452 xenografts); test: H2452 xenografts in NOD-SCID mice treated with GSK126; format: in vivo
Procedure: FIG. 21A-C. BAP1-mutant mesothelioma cell lines and xenograft models are sensitive to EZH2 inhibition. (a) Tumor volume of H2452 xenografts treated daily with GSK126 at 150 mg/kg or vehicle (n=10 mice per group). 5 mice from each group were euthanized following 16 days of treatment to assess H3K27me3 depletion. The remaining mice were treated for the remainder of the trial. (b) Histone ELISA and Western blot analysis of H3K27me3 levels in tumors from in vivo treated mice after 16 days treatment. (c) H&E staining, Ki67 staining and TUNEL staining of tumors extracted from vehicle treated and GSK126 treated mice, 10× magnification.
Next, whether EZH2 inhibition might inhibit the survival of BAP1-mutant mesothelioma cell lines was assessed. EZH2 silencing induced apoptosis in BAP1-mutant cell lines, whereas wild-type cell lines continued to proliferate (FIGS. 16B,C). EZH2 silencing abrogated in vivo tumor formation of BAP1-mutant but not wild-type cell lines (FIG. 16D). Overexpression of EZH2 in BAP1 wild-type cell lines increased proliferation (FIG. 20A) and sensitivity to EZH2 inhibition (FIG. 20B). […] Next, the impact of EZH2 inhibition in vivo was assessed. […] EZH2 inhibition abrogated pulmonary metastasis in a BAP1-mutant mesothelioma cell line with metastatic potential (FIG. 16G) consistent with a role for BAP1/EZH2 in metastasis (Harbour et al., 2010). EZH2 inhibition reduced invasion and increased E-Cadherin expression in vitro (FIGS. 20C-D). Next, the impact of EZH2 inhibition using the […] GSK126 was assessed. BAP1-mutant mesothelioma cells were injected into the flank of NOD-SCID mice, and then initiated treatment with either vehicle or 150 mg/kg GSK126 after tumor formation.

[4] = test system: Bap1 KO mice; test: Bap1 KO mice treated with EPZ011989 (genetic Bap1 KO trial); format: in vivo; settings: 500 mg/kg BID orally for 16 days
Description: FIG. 11A-K. Proliferation induced by Bap1 deletion is rescued by loss of Ezh2. (a) Western blot of H3K27me3 levels in histones purified from bone marrow of Bap1 KO, Ezh2 KO, Bap1/Ezh2 KO and control mice. (b) Representative images of spleens and (c) enumeration of spleen weight from the indicated genotypes of mice, 3 weeks post pIpC. (d) Peripheral white blood cell counts and (e) hematocrit percentages as quantified by a Hemavet. (f) Flow cytometric enumeration of myeloid progenitors (Lin^− c-Kit^+Sca1^−) and (g) Mature myeloid cells (Mac1^+Gr1^+) (h) Cell cycle analyses in myeloid progenitors using Ki67 and DAPI stain (n=3/group) (i) Western blot for H3K27me3 levels in mice (n=5/group) treated with EPZ011989 twice a day at 500 mg/kg for 16 days. (j) Spleen weights and (k) white blood cell counts after treatment. Unless otherwise indicated, […], n=5/Ezh2 KO, n=8/Bap1 KO, and n=11/Bap1/Ezh2 KO, Statistics were calculated with Student t-test; *p<0.05, **p<0.005; ±SEM values reported. Groups of 10 week old NOD-SCID mice were injected subcutaneously in the flank with 6-10×10^6 mesothelioma cell lines (MSTO-211H, Meso10, H226 and H2452) in a 1:1 mixture of matrigel and media. When tumors reached a size of approximately 60-80 mm^3, treatment with either vehicle (0.5% NaCMC+0.1% Tween-80 in water) or EPZ011989 was initiated. Either EPZ011989 or vehicle were given orally BID at a concentration of 500 mg/kg for the duration of the experiment. Tumor volumes were assessed in three dimensions using a caliper. Tumors or lung tissue were extracted following treatment and utilized for Western blotting to assess target inhibition. […] Researchers were not blinded in these experiments.

[5] = test system: BAP1-mutant cell lines; test: 2D Cell Titer Glo viability assay with EPZ011989; format: cell-based, human; settings: 2 week treatment at 1.25 μM, compared with wild-type cell lines
Description: (§2) FIG. 16A-H. BAP1-mutant mesothelioma cell lines and xenograft models are sensitive to EZH2 inhibition. (a) Expression of EZH2 transcripts in TCGA mesothelioma patients compared to matched normals. (b) Annexin V assays in BAP1 wild-type and mutant cell lines expressing either empty vector or hairpins targeting EZH2. (c) Quantitation of Annexin V experiments in mesothelioma cell lines (d) Tumor size of Meso10 and H226 cell lines expressing EZH2 hairpins implanted into NOD-SCID mice, n=6/group. (e) 2D Cell Titer Glo viability assays after 2 week treatment with EPZ011989 at 1.25 μM. (f) 3D Cell Titer Glo viability assays after 3 weeks EPZ011989 treatment at 1.25 μM. (g) Tumor size formation from BAP1 mutant (MSTO and Meso10) or (h) wild-type cells (H226 and H2452) implanted into NOD-SCID mice and treated with either vehicle or 500 mg/kg BID EPZ011989. Tumors were measured 3× weekly, n=6/group. Target inhibition was assessed by histone western blots in extracted tumors (shown in respective figures). Lung pathology of H2452 cells with vehicle and EPZ1011989 treatment. Arrow indicates bulk metastasized tumor. Statistics were calculated with Student t-test; *p<0.05, **p<0.005; ±SEM values reported.

[6] = test system: BAP1-mutant cell lines; test: 3D Cell Titer Glo viability assay with EPZ011989; format: cell-based, human; settings: 3 weeks treatment at 1.25 μM, compared with wild-type cell lines
Description: as §2

[7] = test system: BAP1-mutant tumor; test: Mesothelioma xenografts in NOD-SCID mice treated with EPZ011989, BAP1-mutant tumors; format: in vivo; settings: 500 mg/kg BID
Description: as §2, with “(g) Tumor size formation from BAP1 mutant (MSTO and Meso10) or (h) wild-type cells (H226 and H2452) implanted into NOD-SCID mice and treated with either vehicle or 500 mg/kg BID EPZ011989.” left out
(§3) Groups of 10 week old NOD-SCID mice were injected subcutaneously in the flank with 6-10×10^6 mesothelioma cell lines (MSTO-211H, Meso10, H226 and H2452) in a 1:1 mixture of matrigel and media. […] Tumor volumes were assessed in three dimensions using a caliper. […]

[8] = test system: wild-type tumors; test: Mesothelioma xenografts in NOD-SCID mice treated with EPZ011989, BAP1 wild-type tumors; format: in vivo; settings: 500 mg/kg BID
Description: as §2, with “Lung pathology of H2452 cells with vehicle and EPZ1011989 treatment. Arrow indicates bulk metastasized tumor.” left out
as §3

[9] = test system: MSTO-211H and Meso10 cell lines overexpressing EZH2; test: Sensitivity to EPZ011989 of cell lines overexpressing EZH2; format: cell-based, human; settings: MSTO-211H and Meso10 overexpressing EZH2
Description: as §1

[10] = tumors extracted from treated mice, 150 mg/kg

Structure (SMILES) | invasion [1] | E-Cadherin expression [2] | tumor size ([3]; 150 mg/kg daily, compared to vehicle treated mice) | H3K27me3 in tumors in vivo ([3]; 150 mg/kg, after 16 days treatment, histone ELISA and Western blot) | Ki67 staining [3, 10] | TUNEL staining [3, 10] | splenomegaly (spleen weights) [4] | white blood cell counts [4] | H3K27me3 ([4]; Western blot) | sensitivity of BAP1-mutant cell lines in 2D culture [5] | sensitivity of BAP1-mutant cell lines in 3D culture [6] | BAP1-mutant tumor size ([7]; compared to vehicle treated mice) | pulmonary metastasis ([7]; BAP1-mutant mesothelioma cell line with metastatic potential (H2452)) | response of wild-type tumors (tumor size) [8] | sensitivity with EZH2 overexpression [9]
CC[C@H](C)n1cc(C)c2c(C(=O)NCc3c(C)cc(C)[nH]c3=O)cc(-c3ccc(N4CCNCC4)nc3)cc21 [GSK126] | less invasive | increased | significantly reduced | significantly attenuated | reduced | increased | – | – | – | – | – | – | – | – | –
CCN(c1cc(C#CCN2CCOCC2)cc(C(=O)NCc2c(C)cc(C)[nH]c2=O)c1C)[C@H]1CC[C@H](N(C)CCOC)CC1 [EPZ011989] | – | – | – | – | – | – | decreased | decreased | decreased | more sensitive | more sensitive | significantly reduced | abrogated | less/not responsive | increasingly sensitive
